Measured values taken from patent publication US4954512A, “Anti-ulcer composition” (Okamoto; Shosuke, priority 1987, dated 1990).
Counter-ions that a name gives are not always drawn. Where a SMILES comes first, the peptide text is derived from it. [ ]: non-standard residue; d: D form. Trx = NC[C@H]1CC[C@H](C(=O)O)CC1; Sar = CNCC(=O)O

Assays:
hydrochloric acid ulcer = assay: Action against hydrochloric acid ulcer; type: in vivo, Wistar-strain male rats; settings: po, 1 h; rat, 100 mg/kg peroral administration, 30 min before 0.6 N-HCl; ulcer area; read-out: Anti-ulcer action (hydrochloric acid ulcer model), Inhibition rate against non-administered animal
Protocol: (1) Action against hydrochloric acid ulcer Wistar-strain male rats (weight 180 g, 6 to 7 rats per group) were starved for 18 hours and left without water for 4 hours before the test. The test drug was formed into an aqueous solution or suspended in an aqueous solution of 0.5% carboxymethyl cellulose and administered orally at a volume of 0.5 ml/100 g, and 30 minutes after administration, 1 ml of 0.6 N-HCl was orally administered. One hour after the administration, the stomach was excised and injected with 5 ml of 5% formalin solution. After the formalin fixation for 10 min., the stomach was cut open along the greater curvature, and the area (mm^2) of an ulcer generated at the corpus of stomach was measured. The total sum of the area of ulcer generated per rat was compared with that of the control group. The control group was administered with water or a 0.5% aqueous carboxymethyl cellulose solution. The Ulcer Index was determined as the inhibition ratio (%).

[1] = test system: restrictive water immersion stress ulcer; assay: Action against restrictive water immersion stress ulcer; type: in vivo, Wistar-strain male rats; settings: po; rat, 100 mg/kg peroral administration, 7 hours water immersion stress at 23° C.; ulcer length; read-out: Anti-ulcer action (stress ulcer), Inhibition rate against non-administered animal
Protocol: (2) Action against restrictive water immersion stress ulcer Wistar-strain male rats (weight 180 g, 6 to 8 rats per group) were starved for 18 hours before the test. The test drug was administered orally by the same method as used in (1). Thirty minutes after the administration, the rats were placed in a restrictive stress cage, and immersed to the xiphoideus process of the rat in water of 23° C. After the loading stress for 7 hours, the stomach was excised and, fixed in formalin by the same method as used in (1), and the length (mm) of the ulcer was measured. The total length of an ulcer generated per rat was compared with that of the control group. An Ulcer Index was determined as the inhibition ratio (%).

SMILES: CC1CCC(NC(=O)[C@H](Cc2ccccc2)NC(=O)c2ccc(NC(=N)N)cc2)CC1 (mixture of isomers) [Compound 12, N-(4-guanidinobenzoyl)-L-phenylalanine 4-cis/trans-methylcyclohexylamide hydrochloride]
- inhibition in vivo at 100 mg/kg (hydrochloric acid ulcer): 89.4%
- inhibition in vivo at 100 mg/kg [1]: 65.8%

SMILES: CC(=O)c1ccc(NC(=O)C(Cc2cccc(Oc3ccccc3)c2)NC(=O)[C@H]2CC[C@H](CN)CC2)cc1 (mixture of isomers) [Compound 32, N-(trans-4-aminomethylcyclohexylcarbonyl)-3-phenoxy-DL-phenylalanine 4-acetylanilide hydrochloride]
- inhibition in vivo at 100 mg/kg (hydrochloric acid ulcer): 86.4%
- inhibition in vivo at 100 mg/kg [1]: 67.4%

SMILES: NC[C@H]1CC[C@H](C(=O)N[C@@H](Cc2ccccc2)C(N)=O)CC1 [Compound 1, N-[trans-4-aminomethylcyclohexyl-carbonyl]-L-phenylalanine amide hydrochloride]
- inhibition in vivo at 100 mg/kg (hydrochloric acid ulcer): 77.1%
- inhibition in vivo at 100 mg/kg [1]: 88.2%

SMILES: NCc1ccc(C(=O)N[C@@H](Cc2ccccc2)C(N)=O)cc1 [Compound 2, N-(4-aminomethylbenzoyl)-L-phenyl-alanineamide hydrochloride]
- inhibition in vivo at 100 mg/kg (hydrochloric acid ulcer): 58.2%

SMILES: CCOC(=O)c1ccccc1NC(=O)[C@H](Cc1ccccc1)NC(=O)[C@H]1CC[C@H](CN)CC1 [Compound 3]
- inhibition in vivo at 100 mg/kg (hydrochloric acid ulcer): 91.4%
- inhibition in vivo at 100 mg/kg [1]: 52.2%

SMILES: CCOC(=O)C1CCC(NC(=O)[C@H](Cc2ccccc2)NC(=O)[C@H]2CC[C@H](CN)CC2)CC1 (some centres unmarked) [Compound 4]
- inhibition in vivo at 100 mg/kg (hydrochloric acid ulcer): 71.4%
- inhibition in vivo at 100 mg/kg [1]: 74.6%

SMILES: CCOC(=O)CNC(=O)[C@H](Cc1ccccc1)NC(=O)[C@H]1CC[C@H](CN)CC1 [Compound 5] (H-[Trx]-Phe-Gly-OEt)
- inhibition in vivo at 100 mg/kg (hydrochloric acid ulcer): 53.3%
- inhibition in vivo at 100 mg/kg [1]: 76%

SMILES: CCOC(=O)C1CCCC(NC(=O)[C@H](Cc2ccccc2)NC(=O)[C@H]2CC[C@H](CN)CC2)C1 (some centres unmarked) [Compound 6]
- inhibition in vivo at 100 mg/kg (hydrochloric acid ulcer): 77.4%

SMILES: CNC(=O)[C@H](Cc1ccccc1)NC(=O)[C@H]1CC[C@H](CN)CC1 [Compound 7, N-(trans-4-aminomethylcyclohexyl-carbonyl)-L-phenylalanine methylamide hydrochloride]
- inhibition in vivo at 100 mg/kg (hydrochloric acid ulcer): 52.6%

SMILES: CC(=O)c1ccc(NC(=O)[C@H](Cc2ccccc2)NC(=O)[C@H]2CC[C@H](CN)CC2)cc1 [Compound 8]
- inhibition in vivo at 100 mg/kg (hydrochloric acid ulcer): 73.2%
- inhibition in vivo at 100 mg/kg [1]: 65%

SMILES: CN(C)C(=O)[C@H](Cc1ccccc1)NC(=O)[C@H]1CC[C@H](CN)CC1 [Compound 9, N-(trans-4-aminomethylcyclohexyl-carbonyl)-L-phenylalanine dimethylamide hydrochloride]
- inhibition in vivo at 100 mg/kg (hydrochloric acid ulcer): 73.6%
- inhibition in vivo at 100 mg/kg [1]: 77.6%

SMILES: CCOC(=O)c1ccc(CNC(=O)[C@H](Cc2ccccc2)NC(=O)[C@H]2CC[C@H](CN)CC2)cc1 [Compound 10]
- inhibition in vivo at 100 mg/kg (hydrochloric acid ulcer): 60.4%
- inhibition in vivo at 100 mg/kg [1]: 86.1%

SMILES: CCOC(=O)C1CCN(C(=O)[C@H](Cc2ccccc2)NC(=O)[C@H]2CC[C@H](CN)CC2)CC1 [Compound 11]
- inhibition in vivo at 100 mg/kg (hydrochloric acid ulcer): 68.4%
- inhibition in vivo at 100 mg/kg [1]: 85.2%

SMILES: NC[C@H]1CC[C@H](C(=O)N[C@@H](Cc2ccccc2)C(=O)Nc2ccc(C(N)=O)cc2)CC1 [Compound 13, N-(trans-4-aminomethylcyclohexyl-carbonyl)-L-phenylalanine 4-carbamoylanilide hydrochloride]
- inhibition in vivo at 100 mg/kg (hydrochloric acid ulcer): 85.7%
- inhibition in vivo at 100 mg/kg [1]: 64.8%

SMILES: NC[C@H]1CC[C@H](C(=O)N[C@@H](Cc2ccccc2)C(=O)Nc2ccc(C(=O)O)cc2)CC1 [Compound 14, N-(trans-4-aminomethylcyclohexylcarbonyl)-L-phenylalanine 4-hydroxycarbonylanilide hydrochloride]
- inhibition in vivo at 100 mg/kg (hydrochloric acid ulcer): 74.8%

SMILES: CC(C)(C)NC(=O)[C@H](Cc1ccccc1)NC(=O)[C@H]1CC[C@H](CN)CC1 [Compound 15]
- inhibition in vivo at 100 mg/kg (hydrochloric acid ulcer): 73.1%
- inhibition in vivo at 100 mg/kg [1]: 76.4%

SMILES: CC(=O)c1ccc(NC(=O)[C@H](Cc2ccccc2)NC(=O)c2ccc(CN)cc2)cc1 [Compound 16, N-(4-aminomethylbenzoyl)-L-phenylalanine 4-acetylanilide hydrochloride]
- inhibition in vivo at 100 mg/kg (hydrochloric acid ulcer): 96.6%

SMILES: CN(C)C(=O)[C@H](Cc1ccccc1)NC(=O)c1ccc(CN)cc1 [Compound 17]
- inhibition in vivo at 100 mg/kg (hydrochloric acid ulcer): 57.5%

SMILES: CCOC(=O)c1cccc(NC(=O)[C@H](Cc2ccccc2)NC(=O)[C@H]2CC[C@H](CN)CC2)c1 [Compound 18]
- inhibition in vivo at 100 mg/kg (hydrochloric acid ulcer): 89.2%

SMILES: CN(C)C(=O)[C@H](Cc1ccccc1)NC(=O)[C@H]1CC[C@H](CNC(=N)N)CC1 [Compound 19, N-(trans-4-guanidinomethylcyclohexylcarbonyl)-L-phenylalanine dimethylamide methanesulfonate]
- inhibition in vivo at 100 mg/kg (hydrochloric acid ulcer): 52.5%

SMILES: CCOC(=O)[C@H](CO)NC(=O)[C@H](Cc1ccccc1)NC(=O)[C@H]1CC[C@H](CN)CC1 [Compound 20, Ethyl N-N-(trans-4-aminomethylcyclohexylcarbonyl)-L-phenylalanyl-L-serinate hydrochloride] (H-[Trx]-Phe-Ser-OEt)
- inhibition in vivo at 100 mg/kg (hydrochloric acid ulcer): 54.3%
- inhibition in vivo at 100 mg/kg [1]: 70%

SMILES: CCOC(=O)c1ccc(NC(=O)[C@H](Cc2ccccc2)NC(=O)[C@H]2CC[C@H](CN)CC2)cc1 [Compound 21]
- inhibition in vivo at 100 mg/kg (hydrochloric acid ulcer): 89.8%

SMILES: CN(C)C(=O)[C@H](Cc1ccccc1)NC(=O)c1ccc(C(=N)N)cc1 [Compound 22, N-(4-amidinobenzoyl)-L-phenylalanine dimethylamide hydroiodide]
- inhibition in vivo at 100 mg/kg (hydrochloric acid ulcer): 86%
- inhibition in vivo at 100 mg/kg [1]: 76.2%

SMILES: CNC(=O)c1ccc(NC(=O)[C@H](Cc2ccccc2)NC(=O)[C@H]2CC[C@H](CN)CC2)cc1 [Compound 23, N-(trans-4-aminomethylcyclohexylcarbonyl)-L-phenylalanine 4-methylcarbamoylanilide hydrochloride]
- inhibition in vivo at 100 mg/kg (hydrochloric acid ulcer): 79.9%

SMILES: CN(C)C(=O)c1ccc(NC(=O)[C@H](Cc2ccccc2)NC(=O)[C@H]2CC[C@H](CN)CC2)cc1 [Compound 24]
- inhibition in vivo at 100 mg/kg (hydrochloric acid ulcer): 82.6%
- inhibition in vivo at 100 mg/kg [1]: 70.6%

SMILES: CCOC(=O)CN(C)C(=O)[C@H](Cc1ccccc1)NC(=O)[C@H]1CC[C@H](CN)CC1 [Compound 25] (H-[Trx]-Phe-[Sar]-OEt)
- inhibition in vivo at 100 mg/kg (hydrochloric acid ulcer): 57.3%

SMILES: NC[C@H]1CC[C@H](C(=O)N[C@@H](Cc2ccccc2)C(=O)Nc2cccc(C(N)=O)c2)CC1 [Compound 26]
- inhibition in vivo at 100 mg/kg (hydrochloric acid ulcer): 80.8%

SMILES: NCc1ccc(C(=O)N[C@@H](Cc2ccccc2)C(=O)Nc2ccc(C(N)=O)cc2)cc1 [Compound 27, N-(4-aminomethylbenzoyl)-L-phenylalanine 4-carbamoylanilide hydrochloride]
- inhibition in vivo at 100 mg/kg (hydrochloric acid ulcer): 78.1%

SMILES: N=C(N)c1ccc(C(=O)N[C@@H](Cc2ccccc2)C(=O)Nc2ccc(C(N)=O)cc2)cc1 [Compound 28, N-(4-amidinobenzoyl)-L-phenylalanine 4-carbamoylanilide methanesulfonate]
- inhibition in vivo at 100 mg/kg (hydrochloric acid ulcer): 69.8%
- inhibition in vivo at 100 mg/kg [1]: 57.4%

SMILES: CC(=O)c1ccc(NC(=O)[C@H](Cc2ccccc2)NC(=O)c2ccc(C(=N)N)cc2)cc1 [Compound 29]
- inhibition in vivo at 100 mg/kg (hydrochloric acid ulcer): 81%
- inhibition in vivo at 100 mg/kg [1]: 83.7%

SMILES: CCOC(=O)CCNC(=O)[C@H](Cc1ccccc1)NC(=O)[C@H]1CC[C@H](CN)CC1 [Compound 30]
- inhibition in vivo at 100 mg/kg (hydrochloric acid ulcer): 67.5%

SMILES: NC[C@H]1CC[C@H](C(=O)N[C@@H](Cc2ccc(OCc3ccccc3)cc2)C(=O)Nc2cccnc2)CC1 [Compound 31]
- inhibition in vivo at 100 mg/kg (hydrochloric acid ulcer): 92.3%
- inhibition in vivo at 100 mg/kg [1]: 60%
